The values below come from patent US5334716A, “Heterocyclic derivatives” (Fujisawa Pharmaceutical Co., Ltd., priority 1991, dated 1994).

The experiment deals with prostatic testosterone 5α-reductase. The experiment can be described thus: Inhibitory activity on testosterone 5α-reductase in rats. The class given is biochemical, rat (Spraque-Dawley). The settings on record: rat ventral prostate 5α-reductase suspension, 3H-testosterone 2.2×10^-9 M, 50 μM NADPH, pH 6.5, 37° C., 30 minutes. The text has this: [2] Inhibitory activity on testosterone 5α-reductase in rats
1,2,6,7-^3 H-Testosterone (85-105 Ci/mmol) is a mixture of 1,2,6,7-^3 H-testosterone and testosterone which includes 85-105 Ci of 1,2,6,7-^3 H-testosterone per mmol of testosterone and is purchased from New England Nuclear, Boston, Mass., U.S.A.
Aquazol-2 (Aquazol-2 Universal LSC Cocktail): trademark, purchased from New England Nuclear, Boston, Mass., U.S.A. ii) Preparation of prostatic testosterone 5α-reductase
Mature Spraque-Dawley male rats (7-8 weeks old) were sacrificed by diethyl ether. The ventral prostates were dissected to be free of their capsules and their combined volume was measured by displacement in several milliliters of ice-cold medium A (0.32M sucrose, 0.1 mM dithiothreitol and 20 mM sodium phosphate, pH 6.5). Unless specified, all the following procedures were carried out at 0°-4° C. The prostates were drained, minced, and then homogenized in 3-4 tissue volumes of medium A with Pyrex-glass homogenizer. The homogenate was fractioned by differential centrifugations at […]. The resulting pellets were resuspended in medium A. The suspension (20-30 mg protein/ml) was stored at -80° C. […]
iii) Testosterone 5α-reductase assay
The reaction solution contains 1 mM dithiothreitol, 40 mM sodium phosphate pH 6.5, 50 μM NADPH, 1,2,6,7-^3 H-testosterone/testosterone (2.2×10^-9 M) and the suspension prepared above (0.8 mg of protein) in a total volume of 565 μl. Test Compound was added in 10 μl of 10% ethanol whereas control tubes received the same volume of 10% ethanol. The reaction was started with the addition of the enzyme suspension. After incubation at 37° C. for 30 minutes, the reaction was extracted with 1 ml of ethyl acetate. Fifty μl of ethyl acetate phase was chromatographed on a Merck silica plastic sheet Kieselgel 60 F254, using ethyl acetate: cyclohexane (1:1) as the developing solvent system. The plastic sheet was air dried and cut the testosterone and the 5α-dihydrotestosterone areas. The radioactivity was counted in 5 ml of Aquazol-2 in Packard scintillation counter (PACKARD TRI - CARB 4530), and an inhibitory ratio was calculated.

As for `CC(C)Cc1ccc(C(Nc2cccc(C(=O)c3cc(CCCC(=O)O)c4ccccn34)c2)c2ccc(CC(C)C)cc2)cc1` [Compound (1), 4-[3-[3-[Bis(4-isobutylphenyl)methylamino]benzoyl]indolizin-1-yl]butyric a cid], the midpoint of inhibition, the IC50, lay at 2.3 nM. The value for `CCCCC(Oc1ccc(C(=O)c2cc(CCCC(=O)O)n3ccccc23)cc1)c1ccc(CC(C)C)cc1` (centres unmarked) [(5), 4-[1-[4-[1-(4-Isobutylphenyl)pentyloxy]benzoyl]indolizin-3-yl]butyricacid] was 1.8 nM; that for `CCC(Oc1ccc(C(=O)c2cc(CCCC(=O)O)n3ccccc23)cc1)c1ccc(CC(C)C)cc1` (centres unmarked) [(4), 4-[1-[4-[1-(4-Isobutylphenyl)propyloxy]benzoyl]indolizin-3-yl]butyric acid] was 0.55 nM. For `CC(C)Cc1ccc(C(Oc2cccc(C(=O)c3cc(CCCC(=O)O)c4ccccn34)c2)c2ccc(CC(C)C)cc2)cc1` [(3), 4-[3-[3-[Bis(4-isobutylphenyl)methoxy]benzoyl]indolizin-1-yl]butyric acid] the value was 6.7 nM. For `CC(C)Cc1ccc(C(Nc2ccc(C(=O)c3cc(CCCC(=O)O)n4ccccc34)cc2)c2ccc(CC(C)C)cc2)cc1` [(2), 4-[1-[4-[Bis(4-isobutylphenyl)methylamino]benzoyl]indolizin-3-yl]butyric a cid] the value was 0.44 nM.
